Assay results published in article PMC8231992, “Protease Substrate-Independent Universal Assay for Monitoring Digestion of Native Unmodified Proteins” (International Journal of Molecular Sciences, 2021).

Molecular target: T1, papain (Carica papaya, UniProt P00784)
T1 sequence (P00784 134-345): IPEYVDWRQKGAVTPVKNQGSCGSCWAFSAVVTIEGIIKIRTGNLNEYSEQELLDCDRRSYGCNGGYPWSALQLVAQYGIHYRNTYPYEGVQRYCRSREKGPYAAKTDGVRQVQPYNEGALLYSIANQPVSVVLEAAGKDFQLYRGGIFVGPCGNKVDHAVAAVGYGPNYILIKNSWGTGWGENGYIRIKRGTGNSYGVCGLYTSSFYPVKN
Experiment: protein-probe time-resolved luminescence digestion assay, heat-denatured carbonic anhydrase substrate ([…] with native substrate)
Assay type: biochemical

With `CC(C)C[C@H](NC(=O)[C@H]1O[C@@H]1C(=O)O)C(=O)NCCCCN=C(N)N` [E-64] as the molecule, how does the IC50 read?
Its IC50 is 8.9 ± 0.9 nM.
